{
  "source": "patent US10159655B2",
  "about": "“Agent for inhibiting odor of pyrazine derivatives” (Kao Corporation, priority 2012, dated 2018)",
  "data": [
    {"tested_on": "not listed separately", "test": "Sensory test of ability to reduce the odor of 2,6-dimethylpyrazine on cloth", "type": "in vivo", "details": "0.5 μL flavoring agent on 0.5 g cloth containing 1% 2,6-dimethylpyrazine; four panelists; FIG. 3", "procedure": "The abilities to reduce an odor of a pyrazine derivative by the antagonist substances identified in Example 3 were confirmed by a sensory test.\nA flavoring agent (0.5 μL) was added to cloth (0.5 g) containing 2,6-dimethylpyrazine (1%), and the odor thereof was evaluated by comparing the strength of odor of 2,6-dimethylpyrazine of the cloth not applied with flavor by the flavoring agent. The sensory evaluation test was performed by four panelists. In the evaluation, a case where a strong odor of 2,6-dimethylpyrazine was smelled was rated as 1, and a case where the odor of 2,6-dimethylpyrazine was not smelled at all was rated as 5.", "values": [
      {"compound": "CC(=O)c1ccc2ccccc2c1", "note": "[β-methyl naphthyl ketone]", "odor of 2,6-dimethylpyrazine inhibited (sensory evaluation, rating 1 strong odor to 5 not smelled)": "inhibited"},
      {"compound": "CC1=CC(C)C(C=O)CC1", "note": "(stereo not shown) [2,4-dimethyl-3-cyclohexene-1-carboxyaldehyde]", "odor of 2,6-dimethylpyrazine inhibited (sensory evaluation, rating 1 strong odor to 5 not smelled)": "inhibited"},
      {"compound": "CC(=O)/C(C)=C/C1C(C)=CCCC1(C)C", "note": "(stereo not drawn) [α-isomethyl ionone]", "odor of 2,6-dimethylpyrazine inhibited (sensory evaluation, rating 1 strong odor to 5 not smelled)": "inhibited"},
      {"compound": "CC(C)=CCC/C(C)=C/CO", "note": "[(E)-3,7-dimethyl-2,6-octadien-1-ol]", "odor of 2,6-dimethylpyrazine inhibited (sensory evaluation, rating 1 strong odor to 5 not smelled)": "inhibited"},
      {"compound": "CC=CC(=O)C1=C(C)C=CCC1(C)C", "note": "[1-(2,6,6-trimethyl-1,3-cyclohexadien-1-yl)-2-buten-1-one]", "odor of 2,6-dimethylpyrazine inhibited (sensory evaluation, rating 1 strong odor to 5 not smelled)": "inhibited"},
      {"compound": "CCC=C(C)C(O)CCCCC", "note": "(stereo not shown) [4-methyl-3-decen-5-ol]", "odor of 2,6-dimethylpyrazine inhibited (sensory evaluation, rating 1 strong odor to 5 not smelled)": "inhibited"},
      {"compound": "CC(=O)C=CC1=C(C)CCCC1(C)C", "note": "[4-(2,6,6-trimethyl-1-cyclohexen-1-yl)-3-buten-2-one]", "odor of 2,6-dimethylpyrazine inhibited (sensory evaluation, rating 1 strong odor to 5 not smelled)": "inhibited"},
      {"compound": "CC(C=O)Cc1ccc2c(c1)OCO2", "note": "(stereo not drawn) [α-methyl-3,4-methylenedioxyhydrocinnamic aldehyde]", "odor of 2,6-dimethylpyrazine inhibited (sensory evaluation, rating 1 strong odor to 5 not smelled)": "inhibited"},
      {"compound": "CC(=CCC1CC=C(C)C1(C)C)CO", "note": "(stereo not shown) [2-methyl-4-(2,2,3-trimethyl-3-cyclopenten-1-yl)-2-buten-1-ol]", "odor of 2,6-dimethylpyrazine inhibited (sensory evaluation, rating 1 strong odor to 5 not smelled)": "inhibited"},
      {"compound": "CC(C=O)Cc1ccc(C(C)(C)C)cc1", "note": "(stereo not drawn) [α-methyl-β-(p-tert-butylphenyl)-propionaldehyde]", "odor of 2,6-dimethylpyrazine inhibited (sensory evaluation, rating 1 strong odor to 5 not smelled)": "inhibited"},
      {"compound": "CCC(O)COC1CCCCC1C(C)(C)C", "note": "(stereo not shown) [1-(2-tert-butylcyclohexyloxy)-2-butanol]", "odor of 2,6-dimethylpyrazine inhibited (sensory evaluation, rating 1 strong odor to 5 not smelled)": "inhibited"},
      {"compound": "CCOC(=O)[C@]12CCC[C@H]1[C@@H]1CC[C@H]2C1", "note": "[ethyl-(3aα,4α,7α,3aα)-octahydro-4,7-methano-3aH-indene-3a-carboxylate]", "odor of 2,6-dimethylpyrazine inhibited (sensory evaluation, rating 1 strong odor to 5 not smelled)": "inhibited"},
      {"compound": "CC1C/C=C/CCCCCCCCCC(=O)C1", "note": "(stereo not shown) [(5E)-3-methylcyclopenta-5-decen-1-one]", "odor of 2,6-dimethylpyrazine inhibited (sensory evaluation, rating 1 strong odor to 5 not smelled)": "inhibited"},
      {"compound": "CCCCCCCC1CCC(=O)O1", "note": "(stereo not shown) [γ-undecalactone]", "odor of 2,6-dimethylpyrazine inhibited (sensory evaluation, rating 1 strong odor to 5 not smelled)": "inhibited"},
      {"compound": "C=CCCC(=O)C1=CCCC(C)(C)C1", "note": "[1-(5,5-dimethyl-1-cyclohexen-1-yl)-4-penten-1-one]", "odor of 2,6-dimethylpyrazine inhibited (sensory evaluation, rating 1 strong odor to 5 not smelled)": "inhibited"},
      {"compound": "CCCCCCC(C=O)=Cc1ccccc1", "note": "[α-hexylcinnamic aldehyde]", "odor of 2,6-dimethylpyrazine inhibited (sensory evaluation, rating 1 strong odor to 5 not smelled)": "inhibited"}
    ]},
    {"molecular_target": "T1, olfactory receptor OR5K1 (Homo sapiens, UniProt Q8NHB7)", "T1 construct": "expressed in transfected cells; host or cells: HEK293", "T1 sequence (Q8NHB7 1-308)": "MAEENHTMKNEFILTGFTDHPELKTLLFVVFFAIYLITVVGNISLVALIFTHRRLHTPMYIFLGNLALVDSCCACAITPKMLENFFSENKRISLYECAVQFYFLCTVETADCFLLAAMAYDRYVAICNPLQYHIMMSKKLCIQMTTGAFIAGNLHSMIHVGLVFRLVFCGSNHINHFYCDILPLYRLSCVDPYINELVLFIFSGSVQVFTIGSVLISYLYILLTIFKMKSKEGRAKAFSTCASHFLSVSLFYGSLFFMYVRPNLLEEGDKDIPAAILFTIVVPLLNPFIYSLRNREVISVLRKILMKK", "test": "Antagonistic activity against OR5K1: inhibition of the receptor response to 2,6-dimethylpyrazine (luciferase assay, HEK293 cells)", "type": "cell-based", "details": "2,6-dimethylpyrazine 1 mM + test substance 300 μM, cytotoxic flavoring agents re-evaluated at 333 μM 2,6-dimethylpyrazine + 100 μM test substance, read-out: Inhibition rate (receptor response-inhibiting rate)", "procedure": "The receptor response-inhibiting rate of a test substance was calculated as follows. The receptor activity (X-Y) by stimulation with 2,6-dimethylpyrazine alone was determined by subtracting the luminescence value (Y) in cells to which the receptor was introduced but were not stimulated with 2,6-dimethylpyrazine from the luminescence value (X) derived from firefly luciferase induced by stimulation with 2,6-dimethylpyrazine alone. Similarly, the receptor activity (Z-Y) in the presence of a test substance was determined by subtracting the luminescence value (Y) in cells not stimulated with 2,6-dimethylpyrazine from the luminescence value (Z) stimulated with a mixture of 2,6-dimethylpyrazine and the test substance. The reduction rate of the receptor activity (Z-Y) in the presence of a test substance to the receptor activity (X-Y) by stimulation with 2,6-dimethylpyrazine alone was calculated by the following computation expression: Inhibition rate (%)={1−(Z−Y)/(X−Y)}×100, to determine the receptor response-inhibiting rate of the test substance. In the measurement, multiple independent experiments were performed in duplicate, and the average of each experiment was used.", "units": {"inhibition at 300 µM": "%"}, "values": [
      {"compound": "Cc1ccc(C(C)C)c(O)c1", "note": "[5-methyl-2-(1-methylethyl)-phenol]", "inhibition at 300 µM": "≥ 75"},
      {"compound": "CC(C)=CCCC(C)=CC=O", "note": "[3,7-dimethyl-2,6-octadienal]", "inhibition at 300 µM": "≥ 75"},
      {"compound": "CC(=O)c1c(C)c([N+](=O)[O-])c(C(C)(C)C)c([N+](=O)[O-])c1C", "note": "[4-tert-butyl-2,6-dimethyl-3,5-dinitroacetophenone]", "inhibition at 300 µM": "≥ 40"},
      {"compound": "CCCCCC1=C(C)CCC1=O", "note": "[2-pentyl-3-methyl-2-cyclopenten-1-one]", "inhibition at 300 µM": "≥ 40"},
      {"compound": "CC(=O)c1cc2c(cc1C)C(C)(C)C(C)CC2(C)C", "note": "(stereo not shown) [1-(5,6,7,8-tetrahydro-3,5,5,6,8,8-hexamethyl-2-naphthalenyl)-ethanone]", "inhibition at 300 µM": "≥ 75"},
      {"compound": "CC(C)=CCC/C(C)=C/CO", "note": "[(E)-3,7-dimethyl-2,6-octadien-1-ol]", "inhibition at 300 µM": "≥ 40"},
      {"compound": "CC=CC(=O)C1=C(C)C=CCC1(C)C", "note": "[1-(2,6,6-trimethyl-1,3-cyclohexadien-1-yl)-2-buten-1-one]", "inhibition at 300 µM": "≥ 40"},
      {"compound": "CC(C)=CCCC(C)CC=O", "note": "(stereo not shown) [3,7-dimethyl-6-octenal]", "inhibition at 300 µM": "≥ 50"},
      {"compound": "O=C(OCCc1ccccc1)c1ccccc1O", "note": "[phenylethyl salicylate]", "inhibition at 300 µM": "≥ 75"},
      {"compound": "CCC(=CCC1CC=C(C)C1(C)C)CO", "note": "(stereo not shown) [2-ethyl-4-(2,2,3-trimethyl-3-cyclopenten-1-yl)-2-buten-1-ol]", "inhibition at 300 µM": "≥ 75"},
      {"compound": "CC(=O)C1=C(C)C2CC3(C1)C(C)CCC3C2(C)C", "note": "(stereo not shown) [1-(2,3,4,7,8,8a-hexahydro-3,6,8,8-tetramethyl-1H-3a,7-methanoazulen-5-yl)-ethanone]", "inhibition at 300 µM": "≥ 50"},
      {"compound": "CCC=C(C)C(O)CCCCC", "note": "(stereo not shown) [4-methyl-3-decen-5-ol]", "inhibition at 300 µM": "≥ 75"},
      {"compound": "O=C1CCCCCCCCCCCC(=O)OCCO1", "note": "[1,4-dioxacycloheptadecane-5,17-dione]", "inhibition at 300 µM": "≥ 40"},
      {"compound": "CC(C=O)C1CCCCC1", "note": "(stereo not shown) [2-cyclohexylpropanal]", "inhibition at 300 µM": "≥ 50"},
      {"compound": "CC1(C)CCCC2(C)C1CCC1(C)OCCC12", "note": "(stereo not shown) [dodecahydro-3a,6,6,9a-tetramethylnaphtho[2,1-b]furan]", "inhibition at 300 µM": "≥ 50"},
      {"compound": "CC(C=O)c1ccccc1", "note": "(stereo not shown) [2-phenylpropionaldehyde]", "inhibition at 300 µM": "≥ 50"},
      {"compound": "CC(=O)O[C@]1(C)CC[C@@]23C[C@@H]1C(C)(C)[C@@H]2CC[C@H]3C", "note": "[cedryl acetate]", "inhibition at 300 µM": "≥ 50"},
      {"compound": "CC(=CCC1CC=C(C)C1(C)C)CO", "note": "(stereo not shown) [2-methyl-4-(2,2,3-trimethyl-3-cyclopenten-1-yl)-2-buten-1-ol]", "inhibition at 300 µM": "≥ 50"},
      {"compound": "CC(C)[C@H]1CC[C@@H](CO)CC1", "note": "[cis-4-isopropylcyclohexylmethanol]", "inhibition at 300 µM": "≥ 40"},
      {"compound": "O=CC=Cc1ccccc1", "note": "[cinnamaldehyde]", "inhibition at 300 µM": "≥ 50"},
      {"compound": "CC(=O)C1(C)CC2=C(CCCC2(C)C)CC1C", "note": "(stereo not shown) [7-acetyl-1,2,3,4,5,6,7,8-octahydro-1,1,6,7-tetramethyl-naphthalene]", "inhibition at 300 µM": "≥ 75"},
      {"compound": "CC(C=O)Cc1ccc(C(C)(C)C)cc1", "note": "(stereo not drawn) [α-methyl-β-(p-tert-butylphenyl)-propionaldehyde]", "inhibition at 300 µM": "≥ 50"},
      {"compound": "CCC(O)COC1CCCCC1C(C)(C)C", "note": "(stereo not shown) [1-(2-tert-butylcyclohexyloxy)-2-butanol]", "inhibition at 300 µM": "≥ 75"},
      {"compound": "CC(=O)c1cc(C(C)(C)C)cc2c1C=CC2(C)C", "note": "[6-tert-butyl-1,1-dimethylinden-4-yl methyl ketone]", "inhibition at 300 µM": "≥ 40"},
      {"compound": "CCOCOC1CCCCCCCCCCC1", "note": "[formaldehyde cyclododecyl ethyl acetal]", "inhibition at 300 µM": "≥ 50"},
      {"compound": "CC=Cc1ccc(OCc2ccccc2)c(OC)c1", "note": "[2-methoxy-1-(phenylmethoxy)-4-(1-propenyl)-benzene]", "inhibition at 300 µM": "≥ 50"},
      {"compound": "C=C(OCC)C1C(C)(C)CC(=O)CC1(C)C", "note": "[4-(1-ethoxyvinyl)-3,3,5,5-tetramethylcyclohexanone]", "inhibition at 300 µM": "≥ 50"},
      {"compound": "C=CCc1ccc(O)c(OC)c1", "note": "[1-allyl-3-methoxy-4-hydroxybenzene]", "inhibition at 300 µM": "≥ 40"},
      {"compound": "CC(C)CCCC(C)CCO", "note": "(stereo not shown) [3,7-dimethyl-1-octanol]", "inhibition at 300 µM": "≥ 50"},
      {"compound": "C=CCCC(=O)C1=CCCC(C)(C)C1", "note": "[1-(5,5-dimethyl-1-cyclohexen-1-yl)-4-penten-1-one]", "inhibition at 300 µM": "≥ 40"},
      {"compound": "CC(C=O)Cc1ccc(C(C)C)cc1", "note": "(stereo not drawn) [α-methyl-4-(1-methylethyl)-benzenepropanal]", "inhibition at 300 µM": "≥ 75"},
      {"compound": "CC(C)=CCCC(C)CCOCC=O", "note": "(stereo not shown) [6,10-dimethyl-3-oxa-9-undecenal]", "inhibition at 300 µM": "≥ 40"},
      {"compound": "CCCCCCOC(=O)c1ccccc1O", "note": "[hexyl salicylate]", "inhibition at 300 µM": "≥ 40"}
    ]}
  ]
}
